Data taken from PMC9516332 (Frontiers in Oncology, 2022).
Where two headings read alike, the source gives them in different places.

Legend:
134 cancer cell lines [1] = assay: Cell viability assay (ATPlite, 72 hours), IC50 on cancer cell line panel
AP-1060 (ETV6-NTRK3) = assay: Cell viability assay; settings: read-out: IC50 in cell proliferation assay
134 cancer cell lines [2] = tested on: 134 cancer cell lines

With `Cc1cc(Nc2ncnc3ccc(NC4=NC(C)(C)CO4)cc23)ccc1Oc1ccn2ncnc2c1` [tucatinib] the IC50 (134 cancer cell lines [1]; Homo sapiens, MV4-11, read-out: IC50 in cell proliferation assay, MV4-11 cell line (FLT3 ITD)) was 19.1 µM, the IC50 (134 cancer cell lines [1]; Homo sapiens, MeWo, read-out: IC50 in cell proliferation assay, MeWo cell line) was > 31.6 µM and the IC50 (134 cancer cell lines [1]; Homo sapiens, NCCIT, read-out: IC50 in cell proliferation assay, NCC-IT cell line) was > 31.6 µM. The IC50 (134 cancer cell lines [1]; Homo sapiens, NCI-H82, read-out: IC50 in cell proliferation assay, cell line NCI-H82) was 20.4 µM, the IC50 (134 cancer cell lines [1]; Homo sapiens, NCI-H460, read-out: IC50 in cell proliferation assay, NCI-H460 cell line) was 30.4 µM and the IC50 (134 cancer cell lines [1]; Homo sapiens, NCI-H661, read-out: IC50 in cell proliferation assay, NCI-H661 cell line) was 26.9 µM. The IC50 (134 cancer cell lines [1]; Homo sapiens, NCI-H716, read-out: IC50 in cell proliferation assay, cell line NCI-H716 (FGFR2-COL14A1)) was 29.5 µM, the IC50 (134 cancer cell lines [1]; Homo sapiens, NCI-H1650, read-out: IC50 in cell proliferation assay, NCI-H1650 cell line (EGFR exon19del)) was > 31.6 µM and the IC50 (134 cancer cell lines [1]; Homo sapiens, NCI-H1975, read-out: IC50 in cell proliferation assay, NCI-H1975 cell line (EGFR p.L858R + p.T790M)) was 24.5 µM. For the same compound, the IC50 (134 cancer cell lines [1]; Homo sapiens, NCI-H2228, read-out: IC50 in cell proliferation assay, NCI-H2228 cell line (EML4-ALK)) was > 31.6 µM, the IC50 (134 cancer cell lines [1]; Homo sapiens, OVCAR-3, read-out: IC50 in cell proliferation assay, cell line OVCAR-3) was > 31.6 µM and the IC50 (134 cancer cell lines [1]; Homo sapiens, PFSK-1, read-out: IC50 in cell proliferation assay, cell line PFSK-1) was 19 µM. It also gave an IC50 (134 cancer cell lines [1]; Homo sapiens, RL95-2, read-out: IC50 in cell proliferation assay, cell line RL95-2 (EGFR p.A289V)) of 1.76 µM, an IC50 (134 cancer cell lines [1]; Homo sapiens, RPMI-7951, read-out: IC50 in cell proliferation assay, cell line RPMI-7951 (BRAF p.V600E)) of 15.8 µM and an IC50 (134 cancer cell lines [1]; Homo sapiens, RS4-11, read-out: IC50 in cell proliferation assay, cell line RS4;11) of 24.4 µM. It also gave an IC50 (134 cancer cell lines [1]; Homo sapiens, Rec1, read-out: IC50 in cell proliferation assay, cell line REC-1) of 12 µM, an IC50 (134 cancer cell lines [1]; Homo sapiens, SHP77, read-out: IC50 in cell proliferation assay, cell line SHP-77) of 22.8 µM and an IC50 (134 cancer cell lines [1]; Homo sapiens, SK-BR-3, read-out: IC50 in cell proliferation assay, cell line SK-BR-3 (ERBB2 amplification)) of 0.022 µM. For the same compound, the IC50 (134 cancer cell lines [1]; Homo sapiens, SK-N-AS, read-out: IC50 in cell proliferation assay, cell line SK-N-AS) was 25.2 µM, the IC50 (134 cancer cell lines [1]; Homo sapiens, SK-N-FI, read-out: IC50 in cell proliferation assay, cell line SK-N-FI) was > 31.6 µM and the IC50 (134 cancer cell lines [1]; Homo sapiens, SK-N-MC, read-out: IC50 in cell proliferation assay, cell line SK-N-MC) was 15.1 µM. For the same compound, the IC50 (134 cancer cell lines [1]; Homo sapiens, SK-N-SH, read-out: IC50 in cell proliferation assay, cell line SK-N-SH (ALK p.F1174L)) was 24.9 µM, the IC50 (134 cancer cell lines [1]; Homo sapiens, SNU-5, read-out: IC50 in cell proliferation assay, cell line SNU-5 (MET amplification)) was 24.6 µM and the IC50 (134 cancer cell lines [1]; Homo sapiens, SNU-16, read-out: IC50 in cell proliferation assay, cell line SNU-16 (FGFR2 amplification)) was 20.5 µM. The IC50 (134 cancer cell lines [1]; Homo sapiens, SNU-C2B, read-out: IC50 in cell proliferation assay, cell line SNU-C2B (EGFR p.R165Q)) was > 31.6 µM, the IC50 (134 cancer cell lines [1]; Homo sapiens, SU-DHL-1, read-out: IC50 in cell proliferation assay, cell line SU-DHL-1 (NPM1-ALK)) was 15.7 µM and the IC50 (134 cancer cell lines [1]; Homo sapiens, SU-DHL-6, read-out: IC50 in cell proliferation assay, cell line SU-DHL-6) was 15.3 µM. The IC50 (134 cancer cell lines [1]; Homo sapiens, SUP-T1, read-out: IC50 in cell proliferation assay, cell line SUP-T1) was > 31.6 µM, the IC50 (134 cancer cell lines [1]; Homo sapiens, SW48, read-out: IC50 in cell proliferation assay, cell line SW48 (EGFR p.G719S)) was 17.4 µM and the IC50 (134 cancer cell lines [1]; Homo sapiens, SW480, read-out: IC50 in cell proliferation assay, cell line SW480) was > 31.6 µM. The IC50 (134 cancer cell lines [1]; Homo sapiens, SW626, read-out: IC50 in cell proliferation assay, cell line SW626) was 23.5 µM, the IC50 (134 cancer cell lines [1]; Homo sapiens, SW780, read-out: IC50 in cell proliferation assay, cell line SW780 (FGFR3-BAIAP2L1)) was 22.7 µM and the IC50 (134 cancer cell lines [1]; Homo sapiens, SW837, read-out: IC50 in cell proliferation assay, cell line SW837) was > 31.6 µM. The IC50 (134 cancer cell lines [1]; Homo sapiens, SW872, read-out: IC50 in cell proliferation assay, cell line SW872 (BRAF p.V600E)) was 31.4 µM, the IC50 (134 cancer cell lines [1]; Homo sapiens, SW900, read-out: IC50 in cell proliferation assay, cell line SW900) was > 31.6 µM and the IC50 (134 cancer cell lines [1]; Homo sapiens, SW948, read-out: IC50 in cell proliferation assay, cell line SW948) was > 31.6 µM. The IC50 (134 cancer cell lines [1]; Homo sapiens, SW982, read-out: IC50 in cell proliferation assay, cell line SW982 (BRAF p.V600E)) was > 31.6 µM, the IC50 (134 cancer cell lines [1]; Homo sapiens, SW-620, read-out: IC50 in cell proliferation assay, cell line SW620) was > 31.6 µM and the IC50 (134 cancer cell lines [1]; Homo sapiens, T98G, read-out: IC50 in cell proliferation assay, cell line T98G) was 30.1 µM. For the same compound, the IC50 (134 cancer cell lines [1]; Homo sapiens, TCC-SUP, read-out: IC50 in cell proliferation assay, cell line TCCSUP) was 30.4 µM, the IC50 (134 cancer cell lines [1]; Homo sapiens, THP-1, read-out: IC50 in cell proliferation assay, cell line THP-1) was > 31.6 µM and the IC50 (134 cancer cell lines [1]; Homo sapiens, U2OS, read-out: IC50 in cell proliferation assay, cell line U2OS) was 22.1 µM. The IC50 (134 cancer cell lines [1]; Homo sapiens, U-87 MG, read-out: IC50 in cell proliferation assay, cell line U-87MG ATCC) was > 31.6 µM, the IC50 (134 cancer cell lines [1]; Homo sapiens, U-118-MG, read-out: IC50 in cell proliferation assay, cell line U-118MG) was 25 µM and the IC50 (134 cancer cell lines [1]; Homo sapiens, UMUC3, read-out: IC50 in cell proliferation assay, cell line UM-UC-3) was 8.4 µM. For the same compound, the IC50 (134 cancer cell lines [1]; Hs766T, read-out: IC50 in cell proliferation assay, Hs 766T cell line) was > 31.6 µM, the IC50 (134 cancer cell lines [1]; L-82, read-out: IC50 in cell proliferation assay, L-82 cell line (NPM1-ALK)) was > 31.6 µM and the IC50 (134 cancer cell lines [1]; Rh30, read-out: IC50 in cell proliferation assay, cell line Rh30) was 25.8 µM. The IC50 (134 cancer cell lines [1]; read-out: IC50 in cell proliferation assay, 11-18 cell line (EGFR p.L858R)) was 0.825 µM, the IC50 (134 cancer cell lines [1]; read-out: IC50 in cell proliferation assay, Hs 852.T cell line) was > 31.6 µM and the IC50 (134 cancer cell lines [1]; read-out: IC50 in cell proliferation assay, JAR cell line) was 24.1 µM. It also gave an IC50 (134 cancer cell lines [1]; read-out: IC50 in cell proliferation assay, cell line 5637) of 8.88 µM, an IC50 (134 cancer cell lines [1]; read-out: IC50 in cell proliferation assay, cell line A-388) of 15.9 µM and an IC50 (134 cancer cell lines [1]; read-out: IC50 in cell proliferation assay, cell line DB) of 19.2 µM. For the same compound, the IC50 (134 cancer cell lines [1]; read-out: IC50 in cell proliferation assay, cell line DEL (NPM1-ALK)) was > 31.6 µM, the IC50 (134 cancer cell lines [1]; read-out: IC50 in cell proliferation assay, cell line ES-2 (BRAF p.V600E)) was 18.4 µM and the IC50 (134 cancer cell lines [1]; read-out: IC50 in cell proliferation assay, cell line PA-1) was 21.1 µM. It also gave an IC50 (134 cancer cell lines [1]; read-out: IC50 in cell proliferation assay, cell line PC-3) of 26.8 µM, an IC50 (134 cancer cell lines [1]; read-out: IC50 in cell proliferation assay, cell line RD) of 28.8 µM and an IC50 (134 cancer cell lines [1]; read-out: IC50 in cell proliferation assay, cell line RKO (BRAF p.V600E)) of 13.1 µM. The IC50 (134 cancer cell lines [1]; read-out: IC50 in cell proliferation assay, cell line RL) was 24 µM, the IC50 (134 cancer cell lines [1]; read-out: IC50 in cell proliferation assay, cell line RT-4 (FGFR3-TACC3)) was 9.99 µM and the IC50 (134 cancer cell lines [1]; read-out: IC50 in cell proliferation assay, cell line SR (NPM1-ALK)) was 16.8 µM. The IC50 (134 cancer cell lines [1]; read-out: IC50 in cell proliferation assay, cell line T24) was 20.1 µM, the IC50 (134 cancer cell lines [1]; read-out: IC50 in cell proliferation assay, cell line TT (RET p.C634W)) was > 31.6 µM and the IC50 (134 cancer cell lines [1]; read-out: IC50 in cell proliferation assay, cell line VA-ES-BJ) was 25.9 µM. For the same compound, the IC50 (AP-1060 (ETV6-NTRK3)) was 29.1 µM and the IC50 (134 cancer cell lines [2]) was 6.88 µM.
